Measurements taken from PMC10794144, “A novel antibiotic class targeting the lipopolysaccharide transporter” (Nature, 2024).
Values after ≈ are worked out from the molar mass of the structure shown.

Tested on: A. baumannii
Assay: microbe, parasite or virus in culture
Method in brief: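 MIC was taken as the lowest concentration without visible growth, or past which OD600 no longer fell. Testing followed CLSI M07 and M100 broth microdilution, using 0.5 McFarland-derived inocula in CAMHB (LB for A. baylyi isolates).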

`CN1C(=O)[C@H](CCCCN)NC(=O)[C@H](CCCN)NCc2cccnc2Sc2c(Cl)ccc(Cl)c2CNC(=O)[C@@H]1Cc1c[nH]c2ccccc12` [RO7075573] was tested, and the “MIC 100%” value (ROB08705, Study LGC293598) was ≤0.06 mg/L, the “MIC 80%” value (ROB08705, Study LGC294355) was ≤0.06 mg/L and the “MIC 100%” value (ROB08705, Study LGC294355) was 32 mg/L (≈ 43.3 µM). For the same molecule, the “MIC 80%” value (ROB08705, Study LGC295147) was 0.12 mg/L (≈ 0.162 µM), the “MIC 100%” value (ROB08705, Study LGC295147) was 1 mg/L (≈ 1.35 µM) and the “MIC 80%” value (ROB08705, Study LGC296813) was ≤0.06 mg/L. For the same molecule, the “MIC 100%” value (ROB08705, Study LGC296813) was ≤0.06 mg/L, the “MIC 80%” value (ROB08705, Study LGC299544) was 0.12 mg/L (≈ 0.162 µM) and the “MIC 100%” value (ROB08705, Study LGC299544) was 0.12 mg/L (≈ 0.162 µM). For the same molecule, the “MIC 80%” value (ROB08705, Study LGC301026) was ≤0.06 mg/L, the “MIC 100%” value (ROB08705, Study LGC301026) was ≤0.06 mg/L and the “MIC 80%” value (ROB08705, Study LGC308175) was ≤0.06 mg/L. The “MIC 100%” value (ROB08705, Study LGC308175) was ≤0.06 mg/L, the “MIC 80%” value (ROB08705, Study ROC010) was 0.12 mg/L (≈ 0.162 µM) and the “MIC 100%” value (ROB08705, Study ROC010) was 64 mg/L (≈ 86.5 µM). The “MIC 80%” value (ROB08705, Study ROC012) was ≤0.06 mg/L, the “MIC 100%” value (ROB08705, Study ROC012) was 0.12 mg/L (≈ 0.162 µM) and the “MIC 80%” value (ROB08706, Study LGC281440) was 0.25 mg/L (≈ 0.338 µM). For the same molecule, the “MIC 100%” value (ROB08706, Study LGC281440) was 16 mg/L (≈ 21.6 µM), the “MIC 80%” value (ROB08706, Study LGC282160) was 0.25 mg/L (≈ 0.338 µM) and the “MIC 100%” value (ROB08706, Study LGC282160) was 64 mg/L (≈ 86.5 µM). The “MIC 80%” value (ROB08706, Study LGC284879) was 1 mg/L (≈ 1.35 µM), the “MIC 100%” value (ROB08706, Study LGC284879) was >64 mg/L and the “MIC 80%” value (ROB08706, Study LGC285582) was 0.25 mg/L (≈ 0.338 µM). For the same molecule, the “MIC 100%” value (ROB08706, Study LGC285582) was 64 mg/L (≈ 86.5 µM), the “MIC 80%” value (ROB08706, Study LGC286210) was 0.5 mg/L (≈ 0.676 µM) and the “MIC 100%” value (ROB08706, Study LGC286210) was 64 mg/L (≈ 86.5 µM). The “MIC 80%” value (ROB08706, Study LGC293598) was 0.5 mg/L (≈ 0.676 µM), the “MIC 100%” value (ROB08706, Study LGC293598) was >64 mg/L and the “MIC 80%” value (ROB08706, Study LGC294355) was 0.5 mg/L (≈ 0.676 µM). The “MIC 100%” value (ROB08706, Study LGC294355) was >64 mg/L, the “MIC 80%” value (ROB08706, Study LGC295147) was 0.25 mg/L (≈ 0.338 µM) and the “MIC 100%” value (ROB08706, Study LGC295147) was 64 mg/L (≈ 86.5 µM). For the same molecule, the “MIC 80%” value (ROB08706, Study LGC296813) was 0.5 mg/L (≈ 0.676 µM), the “MIC 100%” value (ROB08706, Study LGC296813) was 64 mg/L (≈ 86.5 µM) and the “MIC 80%” value (ROB08706, Study LGC299544) was 0.5 mg/L (≈ 0.676 µM). The “MIC 100%” value (ROB08706, Study LGC299544) was 64 mg/L (≈ 86.5 µM), the “MIC 80%” value (ROB08706, Study LGC301026) was 0.5 mg/L (≈ 0.676 µM) and the “MIC 100%” value (ROB08706, Study LGC301026) was 64 mg/L (≈ 86.5 µM). The “MIC 80%” value (ROB08706, Study LGC308175) was 0.5 mg/L (≈ 0.676 µM), the “MIC 100%” value (ROB08706, Study LGC308175) was 64 mg/L (≈ 86.5 µM) and the “MIC 80%” value (ROB08706, Study ROC010) was 0.5 mg/L (≈ 0.676 µM). For the same molecule, the “MIC 100%” value (ROB08706, Study ROC010) was 0.5 mg/L (≈ 0.676 µM), the “MIC 80%” value (ROB08706, Study ROC012) was 0.5 mg/L (≈ 0.676 µM) and the “MIC 100%” value (ROB08706, Study ROC012) was 32 mg/L (≈ 43.3 µM). The “MIC 80%” value (ROB08707, Study LGC281440) was ≤0.06 mg/L, the “MIC 100%” value (ROB08707, Study LGC281440) was 16 mg/L (≈ 21.6 µM) and the “MIC 80%” value (ROB08707, Study LGC282160) was 0.12 mg/L (≈ 0.162 µM). The “MIC 100%” value (ROB08707, Study LGC282160) was 64 mg/L (≈ 86.5 µM), the “MIC 80%” value (ROB08707, Study LGC284879) was 0.12 mg/L (≈ 0.162 µM) and the “MIC 100%” value (ROB08707, Study LGC284879) was >64 mg/L. For the same molecule, the “MIC 80%” value (ROB08707, Study LGC285582) was 0.12 mg/L (≈ 0.162 µM), the “MIC 100%” value (ROB08707, Study LGC285582) was 64 mg/L (≈ 86.5 µM) and the “MIC 80%” value (ROB08707, Study LGC286210) was 0.12 mg/L (≈ 0.162 µM). The “MIC 100%” value (ROB08707, Study LGC286210) was 64 mg/L (≈ 86.5 µM), the “MIC 80%” value (ROB08707, Study LGC293598) was ≤0.06 mg/L and the “MIC 100%” value (ROB08707, Study LGC293598) was >64 mg/L. For the same molecule, the “MIC 80%” value (ROB08707, Study LGC294355) was 0.12 mg/L (≈ 0.162 µM), the “MIC 100%” value (ROB08707, Study LGC294355) was >64 mg/L and the “MIC 80%” value (ROB08707, Study LGC295147) was 0.12 mg/L (≈ 0.162 µM). The “MIC 100%” value (ROB08707, Study LGC295147) was 64 mg/L (≈ 86.5 µM), the “MIC 80%” value (ROB08707, Study LGC296813) was 0.12 mg/L (≈ 0.162 µM) and the “MIC 100%” value (ROB08707, Study LGC296813) was 64 mg/L (≈ 86.5 µM). The “MIC 80%” value (ROB08707, Study LGC299544) was 0.12 mg/L (≈ 0.162 µM), the “MIC 100%” value (ROB08707, Study LGC299544) was 64 mg/L (≈ 86.5 µM) and the “MIC 80%” value (ROB08707, Study LGC301026) was 0.25 mg/L (≈ 0.338 µM). For the same molecule, the “MIC 100%” value (ROB08707, Study LGC301026) was 64 mg/L (≈ 86.5 µM), the “MIC 80%” value (ROB08707, Study LGC308175) was ≤0.06 mg/L and the “MIC 100%” value (ROB08707, Study LGC308175) was 64 mg/L (≈ 86.5 µM). For the same molecule, the “MIC 80%” value (ROB08707, Study ROC010) was 0.12 mg/L (≈ 0.162 µM), the “MIC 100%” value (ROB08707, Study ROC010) was 0.12 mg/L (≈ 0.162 µM) and the “MIC 80%” value (ROB08707, Study ROC012) was 0.12 mg/L (≈ 0.162 µM). For the same molecule, the “MIC 100%” value (ROB08707, Study ROC012) was 32 mg/L (≈ 43.3 µM), the “MIC 80%” value (ROB08708, Study LGC281440) was ≤0.06 mg/L and the “MIC 100%” value (ROB08708, Study LGC281440) was 16 mg/L (≈ 21.6 µM). The “MIC 80%” value (ROB08708, Study LGC282160) was 0.12 mg/L (≈ 0.162 µM), the “MIC 100%” value (ROB08708, Study LGC282160) was 64 mg/L (≈ 86.5 µM) and the “MIC 80%” value (ROB08708, Study LGC284879) was 0.12 mg/L (≈ 0.162 µM). For the same molecule, the “MIC 100%” value (ROB08708, Study LGC284879) was >64 mg/L, the “MIC 80%” value (ROB08708, Study LGC285582) was ≤0.06 mg/L and the “MIC 100%” value (ROB08708, Study LGC285582) was 64 mg/L (≈ 86.5 µM). For the same molecule, the “MIC 80%” value (ROB08708, Study LGC286210) was 0.12 mg/L (≈ 0.162 µM), the “MIC 100%” value (ROB08708, Study LGC286210) was 64 mg/L (≈ 86.5 µM) and the “MIC 80%” value (ROB08708, Study LGC293598) was ≤0.06 mg/L. The “MIC 100%” value (ROB08708, Study LGC293598) was >64 mg/L and the “MIC 80%” value (ROB08708, Study LGC294355) was 0.12 mg/L (≈ 0.162 µM).
